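How tested: cells in 96-well plates exposed to compound for 48 hours at five concentrations. At the TGI there is no net growth.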
Columns and labels:
Test in all cases: NCI-60 cell line screen, 48 h
SK-MEL-2 melanoma = test system: SK-MEL-2 melanoma
HCC-2998 colon = test system: HCC-2998 colon
SW-620 colon = test system: SW-620 colon
OVCAR-3 ovarian = test system: OVCAR-3 ovarian
SK-MEL-28 melanoma = test system: SK-MEL-28 melanoma
OVCAR-5 ovarian = test system: OVCAR-5 ovarian
HCT-116 colon = test system: HCT-116 colon
LXFL 529 NSCLC = test system: LXFL 529 NSCLC
M14 melanoma = test system: M14 melanoma
KM12 colon = test system: KM12 colon
CAKI-1 renal = test system: CAKI-1 renal
EKVX NSCLC = test system: EKVX NSCLC
A498 renal = test system: A498 renal
SK-MEL-5 melanoma = test system: SK-MEL-5 melanoma
DLD-1 colon = test system: DLD-1 colon
HOP-92 NSCLC = test system: HOP-92 NSCLC
HL-60(TB) leukemia = test system: HL-60(TB) leukemia
MALME-3M melanoma = test system: MALME-3M melanoma
RPMI-8226 leukemia = test system: RPMI-8226 leukemia
XF 498 CNS = test system: XF 498 CNS
SNB-78 CNS = test system: SNB-78 CNS
HCT-15 colon = test system: HCT-15 colon
IGROV1 ovarian = test system: IGROV1 ovarian
DMS 114 small cell lung = test system: DMS 114 small cell lung
CCRF-CEM leukemia = test system: CCRF-CEM leukemia
786-0 renal = test system: 786-0 renal
RXF-631 renal = test system: RXF-631 renal
DMS 273 small cell lung = test system: DMS 273 small cell lung
SNB-75 CNS = test system: SNB-75 CNS
ACHN renal = test system: ACHN renal
A549 NSCLC = test system: A549 NSCLC
M19-MEL melanoma = test system: M19-MEL melanoma
UACC-257 melanoma = test system: UACC-257 melanoma
U251 CNS = test system: U251 CNS
SF-539 CNS = test system: SF-539 CNS
LOX IMVI melanoma = test system: LOX IMVI melanoma
HOP-18 NSCLC = test system: HOP-18 NSCLC
SF-295 CNS = test system: SF-295 CNS
SK-OV-3 ovarian = test system: SK-OV-3 ovarian
KM20L2 colon = test system: KM20L2 colon
OVCAR-8 ovarian = test system: OVCAR-8 ovarian
UACC-62 melanoma = test system: UACC-62 melanoma
NCI-H23 lung = test system: NCI-H23 lung
HOP-62 NSCLC = test system: HOP-62 NSCLC
TK-10 renal = test system: TK-10 renal
K-562 leukemia = test system: K-562 leukemia
COLO 205 colon = test system: COLO 205 colon
OVCAR-4 ovarian = test system: OVCAR-4 ovarian
MOLT-4 leukemia = test system: MOLT-4 leukemia
NCI-H460 lung = test system: NCI-H460 lung
HT29 colon = test system: HT29 colon
UO-31 renal = test system: UO-31 renal
SNB-19 CNS = test system: SNB-19 CNS
SN12C renal = test system: SN12C renal
SF-268 CNS = test system: SF-268 CNS
NCI-H226 lung = test system: NCI-H226 lung
NCI-H522 lung = test system: NCI-H522 lung
SR leukemia = test system: SR leukemia

Measured: TGI

CC(=O)N1CCc2[nH]c3ccccc3c2CC1
98.9 µM: SNB-75 CNS
not listed: UO-31 renal | SNB-19 CNS | SN12C renal | SF-268 CNS | NCI-H226 lung | NCI-H522 lung | SR leukemia
> 100 µM: all other assays above

NC(N)=N/N=C(/CC1OC(=O)c2ccccc21)c1ccc2ccccc2c1 (configuration not stated)
31.1 µM: HCC-2998 colon
34.7 µM: UACC-62 melanoma
35.8 µM: SK-MEL-5 melanoma
39 µM: COLO 205 colon
35 µM: TK-10 renal
52.9 µM: EKVX NSCLC
37.4 µM: OVCAR-4 ovarian
33.7 µM: ACHN renal
31.8 µM: SF-268 CNS
28.8 µM: NCI-H522 lung
30 µM: MALME-3M melanoma
33.6 µM: SR leukemia
20.9 µM: XF 498 CNS
31.9 µM: SF-539 CNS
30.3 µM: M14 melanoma
55 µM: HOP-92 NSCLC
74 µM: SK-OV-3 ovarian
67 µM: K-562 leukemia
26.6 µM: KM12 colon
47.7 µM: SNB-75 CNS
32.7 µM: UO-31 renal
35.2 µM: SK-MEL-28 melanoma
33.4 µM: A498 renal
32.5 µM: NCI-H460 lung
44.9 µM: DMS 273 small cell lung
57.2 µM: KM20L2 colon
88.6 µM: NCI-H23 lung
31.6 µM: M19-MEL melanoma
38.3 µM: OVCAR-3 ovarian
45.7 µM: HT29 colon
31.7 µM: HCT-15 colon
43.3 µM: HOP-18 NSCLC
79.4 µM: MOLT-4 leukemia
32.4 µM: 786-0 renal | NCI-H226 lung
48 µM: RPMI-8226 leukemia
43.8 µM: CCRF-CEM leukemia
28.7 µM: UACC-257 melanoma
30.1 µM: U251 CNS
42.1 µM: HOP-62 NSCLC
25.6 µM: DMS 114 small cell lung
28 µM: DLD-1 colon
47.2 µM: IGROV1 ovarian
27.7 µM: LXFL 529 NSCLC
41.9 µM: HL-60(TB) leukemia
31.5 µM: OVCAR-8 ovarian
42.2 µM: SN12C renal
65.2 µM: RXF-631 renal
not listed: SW-620 colon | HCT-116 colon | A549 NSCLC
> 100 µM: all other assays above

COC(=O)C(CC(=O)c1ccccc1)c1ccccc1NC(C)=O (configuration not stated)
not listed: SK-MEL-2 melanoma | DMS 273 small cell lung
> 100 µM: all other assays above
